This is an account of results in patent US20220098191A1 (priority 2019, published 2022).

In general, IC50 refers to the concentration that gives 50% inhibition.

Each structure is given as a SMILES string. Values joined by “and” are separate entries in the source; they are usually repeats but may differ in a detail not shown here. Identical values can stand only once.

In data set [1] the test system is JVM2 (Lymphoma). Put plainly: MTT in vitro cytotoxicity, 72 hour incubation. It is filed as cell-based. The following applies: Homo sapiens, JVM-2, MTT assay, JVM2 cells. As to the method:
(§1) The in vitro cytotoxicity of a selection of compounds was determined in a panel of cell lines using the standard MTT assay for a 72 hour incubation period (Table 1).
(§2) Tumor cell lines were maintained in RPMI1640 medium supplemented with 10% heat-inactivated fetal bovine serum, 2 mM L-glutamine and 1 mM sodium pyruvate. 1800 cells per well were seeded in a volume of 180 μl in a 96-well flat bottom polystyrene plate. The cells were allowed to adhere overnight at 37° C. in a CO2 incubator. Ligands were initially formulated in DMSO, and stocks stored at −80° C. They were then further formulated at lox concentration in RPMI1640 medium. 20 μl of diluted samples were added into each treatment well. On each plate, blank wells with no cells, and untreated wells containing cells, were included. Plates were then cultured at 37° C. in a CO2 incubator for 72 hrs. Cytotoxicity was evaluated using a tetrazolium salt-based assay, the MTT assay. After 72 hours, the supernatant was removed from each well and 200 μl of a sterile filtered 500 μg/ml MTT solution in water added to each well. The plates were then incubated at 37° C. in a CO2 incubator for 4 hrs. The supernatant was then removed and the formazan crystals formed solubilized by adding 150 μl of DMSO to each well. The plate was then read on a plate reader at 540 nm, and percentage cell survival calculated as follows: ((mean absorbance treated wells at concentration×−mean absorbance blank wells)÷(mean absorbance untreated wells at concentration×−mean absorbance blank wells))×100. Data were plotted as concentration in nM vs. % cell survival in Microsoft Excel, and IC50 values (concentration where cell survival is reduced by a half) were determined from the graph.

For data set [2], the system named is SW620 (Gastric). Put plainly: MTT in vitro cytotoxicity, 72 hour incubation. It is filed as cell-based. Particulars: Homo sapiens, SW-620, MTT assay, SW620 cells. The method, then:
as §1, §2

The subject of data set [3] is SW48 (Gastric). Put plainly: MTT in vitro cytotoxicity, 72 hour incubation. It is filed as cell-based. The following applies: Homo sapiens, MTT assay, SW48 cells. The method, then: as §1, §2
Data set [4] deals with Jurkat (Leukaemia). Put plainly: MTT in vitro cytotoxicity, 72 hour incubation. It is filed as cell-based. The following applies: Homo sapiens, MTT assay, Jurkat cells. As to the method: as §1, §2
In data set [5] the test system is LIM1215 (Gastric). Put plainly: MTT in vitro cytotoxicity, 72 hour incubation. It is filed as cell-based. Particulars: MTT assay, LIM1215 cells. As to the method: as §1, §2
For orientation: Tetrazolium assays rely on reduction of a dye to a coloured formazan, in cell work by metabolically active cells.

The test system of data set [6] is RAJI (Lymphoma). Put plainly: MTT in vitro cytotoxicity, 72 hour incubation. It is filed as cell-based. The following applies: Homo sapiens, MTT assay, RAJI cells. As to the method:
as §1, §2

A short description of data set [7]: Hydrophobicity investigation of free payloads by UPLC (hydrophobicity model). It counts as physicochemical. The following applies: single runs 1-3 (triplicate), 0.1% TFA water/acetonitrile gradient. The method, then:
Both mobile phases were filtered through 0.22 μm filters and degassed by sonication under argon. Caffeine (Merck, UPLC grade) was employed a standard. Blank solvent samples (i.e., DMSO) were used during sample runs to confirm lack of carryover between injections and to monitor column performance.
UPLC-MS analysis was performed on a Waters Acquity H-Class Ultra-Performance Liquid Chromatography (UPLC) System equipped with an Acquity UPLC BEH, […] 50×2.10 mm (Waters, UK) column and a photodiode array detector […], using Waters MassLynx software. The gradient system used for LC analysis consisted of 0.1% trifluoroacetic acid (TFA) in water as Solvent A, and 0.1% trifluoroacetic acid (TFA) in acetonitrile as Solvent B. TFA was purchased from Merck (UK), and diluted to the required concentration with UPLC grade water and acetonitrile for Solvent A and Solvent B, respectively. TFA was added to ensure acidic conditions throughout the analysis. A flow rate of 0.4 mL/min was used, and the detection wavelength was 254 nm. Mass spectrometry data were collected using a Waters SQ Detector 2 coupled to a Waters Acquity H Class UPLC and a Photo Diode Array Detector (ACQ-PDA). The Waters SQ Detector 2 parameters were set to: Capillary (kV), 3.00; Cone (V), 30; De-solvation Temperature (° C.), 600; Cone flow rate (L/h), 50; De-solvation flow rate (L/h), 600.
Gradient method used: from 95% A/5% B to 20% B over 5 min. Then from 20% B to 60% B over 35 min, followed by from 60% B to 85% B over 10 min. It was further changed from 85% B to 90% B over 5 min and kept for a further 5 min. Finally, from 90% B to 95% B over 2.5 min, and then to 20% B over 2.5 min. 10 μL was split via a zero-dead volume T-piece which passed into the mass spectrometer.
Compounds were provided in powder form and were dissolved in DMSO to achieve 5 mM stock solution. This solution was then diluted to 500 μM with 50% acetonitrile/50% water.
A number of commercially available ADC payloads and internal reference compounds were also incorporated into the analysis, and their structures are presented in Table 3.

Take `CNS(=O)(=O)c1ccc(C2=CCN3C(=O)c4cc(OC)c(OCCCCCC(=O)N5C[C@@H](CCl)c6c5cc(O)c5ccccc65)cc4N=C[C@@H]3C2)cc1` [Compound 72, 4-((S)-3-((6-((S)-1-(Chloromethyl)-5-hydroxy-1,2-dihydro-3H-benzo[e]indol-3-yl)-6-oxohexyl)oxy)-2-methoxy-12-oxo-6a,7,10,12-tetrahydrobenzo[e]pyrido[1,2-a][1,4]diazepin-8-yl)-N-methylbenzenesulfonamide]: the IC50 in data set [1] was found to be 0.0016 nM; in data set [2], 0.21 nM; in data set [3], 0.29 nM; in data set [4], 0.0015 nM; in data set [5], 0.32 nM; in data set [6] it was 0.0019 nM. For the same compound, the “Retention Time (min) seco form” value in data set [7] was 24.02 min and 24.04 min. In data set [7], the “Retention Time (min) spiro form” value is 17.11 min and 17.15 min.

With `CNS(=O)(=O)c1ccc(C2=CCN3C(=O)c4cc(OC)c(OCc5cccc(CC(=O)N6C[C@@H](CCl)c7c6cc(O)c6ccccc76)c5)cc4N=C[C@@H]3C2)cc1` [Compound 31, 4-((S)-3-((3-(2-((S)-1-(Chloromethyl)-5-hydroxy-1,2-dihydro-3H-benzo[e]indol-3-yl)-2-oxoethyl)benzyl)oxy)-2-methoxy-12-oxo-6a,7,10,12-tetrahydrobenzo[e]pyrido[1,2-a][1,4]diazepin-8-yl)-N-methylbenzenesulfonamide], the figures for the IC50 in data set [2], in data set [3] and in data set [5] were 0.35 nM, 1.3 nM and 2.7 nM, respectively.

Regarding `CNS(=O)(=O)c1ccc(C2=CCN3C(=O)c4cc(OC)c(OCc5cccc(CC(=O)N6C[C@@H](CCl)c7c6cc(O)c6ccccc76)n5)cc4N=C[C@@H]3C2)cc1` [Compound 35, 4-((S)-3-((6-(2-((S)-1-(Chloromethyl)-5-hydroxy-1,2-dihydro-3H-benzo[e]indol-3-yl)-2-oxoethyl)pyridin-2-yl)methoxy)-2-methoxy-12-oxo-6a,7,10,12-tetrahydrobenzo[e]pyrido[1,2-a][1,4]diazepin-8-yl)-N-methylbenzenesulfonamide], the IC50 was 2.12 nM in data set [2], 3.15 nM in data set [3] and 4.38 nM in data set [5].

Regarding `CNS(=O)(=O)c1ccc(C2=CCN3C(=O)c4cc(OC)c(OC[C@@H](O)CC(=O)N5C[C@@H](CCl)c6c5cc(O)c5ccccc65)cc4N=C[C@@H]3C2)cc1` [Compound 88, 4-((S)-3-((S)-4-((S)-1-(Chloromethyl)-5-hydroxy-1,2-dihydro-3H-benzo[e]indol-3-yl)-2-hydroxy-4-oxobutoxy)-2-methoxy-12-oxo-6a,7,10,12-tetrahydrobenzo[e]pyrido[1,2-a][1,4]diazepin-8-yl)-N-methylbenzenesulfonamide], the IC50 in data set [1] is 0.49 nM; in data set [4] it was 0.97 nM; in data set [6], 0.954 nM. Also, the “Retention Time (min) seco form” value in data set [7] was 18.73 min and 18.70 min. Further, the “Retention Time (min) spiro form” value in data set [7] is 12.47 min and 12.45 min.
